This note sets out measurements from patent US20220324865A1 (Bayer Aktiengesellschaft, priority 2018, published 2022).

The target in this assay is T1, human EP3 receptor (Homo sapiens, UniProt P43115).
T1 construct: expressed in transfected cells; host or cells: CHO K1 (Chinese Hamster Ovary), stably co-transfected with Galpha16 and mitochondrial clytin
T1 sequence (P43115 1-390): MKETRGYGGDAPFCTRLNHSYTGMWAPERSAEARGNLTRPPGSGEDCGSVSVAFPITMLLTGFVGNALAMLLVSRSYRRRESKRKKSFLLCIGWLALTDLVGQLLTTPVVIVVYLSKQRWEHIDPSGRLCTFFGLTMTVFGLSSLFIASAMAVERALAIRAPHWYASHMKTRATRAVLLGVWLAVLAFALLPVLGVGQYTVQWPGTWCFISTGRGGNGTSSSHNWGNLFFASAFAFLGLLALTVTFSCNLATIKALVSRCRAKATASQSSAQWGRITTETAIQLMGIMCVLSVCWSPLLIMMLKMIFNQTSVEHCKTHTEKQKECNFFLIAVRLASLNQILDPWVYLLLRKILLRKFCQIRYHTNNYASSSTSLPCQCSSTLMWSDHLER
Kind of assay: Cellular in vitro assay for determining EP3 receptor activity (human EP3 cell line, sulprostone-stimulated calcium luminescence). Format: cell-based. As to conditions: CHO cells expressing human EP3 and mitochondrial Clytin; antagonist mode, sulprostone at EC50; read-out: EP3 CHO mtCLY ANTAG IC50. In a few lines:
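Antagonist activity was measured as inhibition of the luminescent calcium signal elicited by EC50 sulprostone, following 10 min compound pretreatment. The cell line was recombinant CHO K1 co-expressing human EP3, Gα16 and the photoprotein Clytin, reconstituted with coelenterazine.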
Regarding `COc1ccc([C@@H](C)NC(=O)c2cc3c(=O)[nH]c(-c4ccc5c(c4F)OCCO5)cn3n2)cn1` [Example 1-108, 6-(5-Fluoro-2,3-dihydro-1,4-benzodioxin-6-yl)-N-[(1R)-1-(6-methoxpyridin-3-yl)ethyl]-4-oxo-4,5-dihydropyrazolo[1,5-a]pyrazine-2-carboxamide], the IC50 – broadly, the concentration that inhibits the measured activity by half – amounted to 2.5 nM.

As to `Cc1ccc(-c2cn3nc(C(=O)NC4(c5ccc(F)cc5)CN(CC(F)(F)F)C4)c(C(F)(F)F)c3c(=O)[nH]2)cc1Cl` [6-201], the IC50 was 3.05 nM.

Consider `Cc1ccc(-c2cn3nc(C(=O)NC(C(C)(C)O)C(F)(F)F)c(C4CC4)c3c(=O)[nH]2)cc1F` (racemic) [6-394], for which the half-maximal inhibitory concentration (IC50) amounted to 6.65 nM.

Regarding `CC(NC(=O)c1cc2c(=O)[nH]c(-c3ccc4ccccc4c3)cn2n1)c1ccc(O)cc1` (single isomer, unassigned) [6-543], the half-maximal inhibitory concentration (IC50) was 3.3 nM.

With `COc1ccc([C@@H](C)NC(=O)c2nn3cc(-c4ccc(Cl)c(Cl)c4)[nH]c(=O)c3c2C2CC2)cn1` [6-426], the half-maximal inhibitory concentration (IC50) was 0.82 nM.

`COCc1c(C(=O)N[C@@H](c2ccc(F)cc2)C(F)(F)CO)nn2cc(-c3ccc(Cl)c(F)c3)[nH]c(=O)c12` [6-624]: the half-inhibitory concentration (IC50) came out at 6.7 nM.

Regarding `Cn1cnc2cc(-c3cn4nc(C(=O)N[C@@H](c5ccc(F)cc5)C(C)(C)O)c(C(F)(F)F)c4c(=O)[nH]3)ccc21` [6-659], the IC50 was found to be 8.55 nM.

As for `Cc1c(C(=O)NC(c2cccc(F)c2)C(F)F)nn2c(C)c(-c3ccc4ccccc4c3)[nH]c(=O)c12` (stereo not shown) [Example 3-72, N-[2,2-Difluoro-1-(3-fluorophenyl)ethyl]-3,7-dimethyl-6-(2-naphthyl)-4-oxo-5H-pyrazolo[1,5-a]pyrazine-2-carboxamide], the IC50 was determined as 2.1 nM.

Turning to `COc1ccc(C(CCO)NC(=O)c2cc3c(=O)[nH]c(-c4ccc(C)c(C(F)(F)F)c4)cn3n2)cc1` (stereo not shown) [6-32], the IC50 came out at 7.5 nM.

Regarding `CC(NC(=O)c1cc2c(=O)[nH]c(-c3ccc4cccnc4c3)cn2n1)c1ccc(F)cc1` (stereo not shown) [6-27], the half-maximal inhibitory concentration (IC50) came out at 2.63 nM.

Take `CC(NC(=O)c1cc2c(=O)[nH]c(-c3ccc4ccccc4c3)cn2n1)c1ccc(Cl)c(Cl)c1` (stereo not shown) [Example 2-51, N-[1-(3,4-Dichlorphenyl)ethyl]-6-(2-naphthyl)-4-oxo-4,5-dihydropyrazolo[1,5-a]pyrazine-2-carboxamide]: the IC50 amounted to 2.05 nM.

`COCc1c(C(=O)N[C@@H](c2ccc(F)cc2)C(C)(C)O)nn2cc(-c3ccc(C)c(Cl)c3)[nH]c(=O)c12` [6-627]: the half-inhibitory concentration (IC50) amounted to 0.58 nM.

Regarding `Cc1ccc(-c2cn3nc(C(=O)NC4CCN(CC(F)(F)F)C4)c(C4CC4)c3c(=O)[nH]2)cc1F` (single isomer, unassigned) [6-390], the concentration for half-maximal inhibition (IC50) amounted to 8.5 nM.

For the molecule `CCN1CCC(NC(=O)c2nn3cc(-c4ccc(Cl)c(C)c4)[nH]c(=O)c3c2C2CC2)(C(F)(F)F)C1` (single isomer, unassigned) [6-293], the IC50 was 5.7 nM.

Take `COC[C@@H](NC(=O)c1nn2cc(-c3ccc(C)c(Cl)c3)[nH]c(=O)c2c1C(F)(F)F)c1ccccc1` [6-177]: the half-maximal inhibitory concentration (IC50) stood at 0.67 nM.

With `O=C(N[C@H](CN1CC(F)(F)C1)c1ccccc1)c1cc2c(=O)[nH]c(-c3ccc4ccccc4c3)cn2n1` [6-544], the IC50 stood at 1.65 nM.

`COC[C@@H](C)NC(=O)c1nn2cc(-c3ccc(C(F)(F)F)c(C)c3)[nH]c(=O)c2c1C1CC1` [6-136]: the concentration for half-maximal inhibition (IC50) was determined as 7.5 nM.

For `Cc1cc(C)nc(CNC(=O)c2nn3cc(-c4cnc5cccc(C)c5c4)[nH]c(=O)c3c2C(C)C)n1` [Example 4-60, N-[(4,6-Dimethylpyrimidin-2-yl)methyl]-6-(5-methylquinolin-3-yl)-4-oxo-3-(propan-2-yl)-4,5-dihydropyrazolo[1,5-a]pyrazine-2-carboxamide], the 50% inhibitory concentration (IC50) is 2.1 nM.

In the case of `Cc1ccc(-c2cn3nc(C(=O)NCC(O)C(F)(F)F)c(C(F)(F)F)c3c(=O)[nH]2)cc1Cl` (single isomer, unassigned) [6-160], the IC50 is 0.99 nM.

For the molecule `Cc1ccc(-c2cn3nc(C(=O)NCC(C)(C)O)c(C4CC4)c3c(=O)[nH]2)cc1Cl` [6-285], the IC50 was 3.35 nM.

As for `C[C@@H](NC(=O)c1nn2cc(-c3ccc4ccccc4c3)[nH]c(=O)c2c1C1CC1)c1ccc(F)cc1` [Example 1-81], the IC50 is 1.59 nM.

For the molecule `COc1ccc2c(c1)C(NC(=O)c1cc3c(=O)[nH]c(-c4ccc5ccccc5c4)cn3n1)CC(C)(C)O2` (stereo not shown) [Example 2-16, N-[6-Methoxy-2,2-dimethyl-3,4-dihydro-2H-chromen-4-yl]-6-(2-naphthyl)-4-oxo-4,5-dihydropyrazolo[1,5-a]pyrazine-2-carboxamide], the IC50 was found to be 6.2 nM.
